Data: patent US8975276B2, “Inhibitors of PDE10” (Bristol-Myers Squibb Company, priority 2011, dated 2015)
Structures can show the parent of a compound that is named as a salt. Where two headings read alike, the source gives them in different places.

Target: PDE10 (Homo sapiens (Human), UniProt Q9Y233)
Assay: LE_PDE10A inhibition assay (scintillation proximity assay, cAMP hydrolysis)
Assay type: biochemical
Settings: SPA, 3H-cAMP substrate at Km 25 nM
Description: LE_PDE10A Inhibition Assay:
The PDE10 inhibition assay in 384-well plates was conducted to identify substances for the inhibition of cyclic nucleotide hydrolysis by the PDE10 enzyme. […] PDE10 activity was measured using Scintillation Proximity Assay (SPA)-based methods. PDE10 catalyses the hydrolysis of the intracellular messenger adenosine […] (cAMP) to the non-cyclic adenosine 5′-monophosphate (AMP). The SPA assay was based upon the selective interaction of the tritiated product with yttrium oxide LEADseeker beads.
The assay buffer contained 25 mM HEPES pH 7.4, 2.5 mM Magnesium Chloride and 0.1% BSA. […] The reaction was terminated by adding 6 μL of 5 mg/mL of yttrium oxide LEADseeker beads. The beads were allowed to settle for 3 hours before plates were read in the LEEDSeaker for 6 minutes. The measured signal could be converted to activity relative to an […] control (100%). IC50 values were calculated by using in-house data software and IC50 values were generated by nonlinear regression analysis. (Bristol-Myers Squibb Company, Wallingford, Conn.).

Sequence of PDE10 (Q9Y233 whole entry): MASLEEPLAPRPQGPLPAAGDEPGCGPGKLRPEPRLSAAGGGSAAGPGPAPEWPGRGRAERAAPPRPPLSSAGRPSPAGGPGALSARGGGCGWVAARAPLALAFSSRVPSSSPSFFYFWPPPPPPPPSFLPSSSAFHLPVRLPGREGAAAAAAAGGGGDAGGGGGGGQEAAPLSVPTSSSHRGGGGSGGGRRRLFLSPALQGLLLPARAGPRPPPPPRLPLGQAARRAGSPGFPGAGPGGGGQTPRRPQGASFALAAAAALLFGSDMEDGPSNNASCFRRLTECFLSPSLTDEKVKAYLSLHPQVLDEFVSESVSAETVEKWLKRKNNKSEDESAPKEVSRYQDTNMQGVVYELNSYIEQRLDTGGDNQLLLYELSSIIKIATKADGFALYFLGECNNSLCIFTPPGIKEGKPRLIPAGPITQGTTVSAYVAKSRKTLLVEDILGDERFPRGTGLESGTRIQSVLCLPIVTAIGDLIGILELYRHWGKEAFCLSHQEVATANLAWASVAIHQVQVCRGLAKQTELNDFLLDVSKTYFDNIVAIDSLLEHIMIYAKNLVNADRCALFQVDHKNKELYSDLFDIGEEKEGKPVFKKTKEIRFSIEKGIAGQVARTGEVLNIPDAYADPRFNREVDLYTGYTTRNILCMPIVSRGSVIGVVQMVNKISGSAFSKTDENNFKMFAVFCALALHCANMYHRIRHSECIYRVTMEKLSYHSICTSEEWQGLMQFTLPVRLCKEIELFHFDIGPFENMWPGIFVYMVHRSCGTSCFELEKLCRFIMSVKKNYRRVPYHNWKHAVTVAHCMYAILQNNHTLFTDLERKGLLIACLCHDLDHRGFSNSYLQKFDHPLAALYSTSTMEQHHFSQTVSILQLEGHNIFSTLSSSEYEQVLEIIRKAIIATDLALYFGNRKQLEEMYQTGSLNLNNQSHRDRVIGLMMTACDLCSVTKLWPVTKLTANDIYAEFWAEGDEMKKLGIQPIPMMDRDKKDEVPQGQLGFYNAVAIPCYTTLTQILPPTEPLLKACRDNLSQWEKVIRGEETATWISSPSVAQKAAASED

Row | SMILES | IC50 (read-out: PDE10 IC50 (Range)) [nM] | IC50 (read-out: PDE10 IC50) [nM]
1 | Cc1ccc(-c2cn3ccc(-c4nc5c(C)ncc(C)n5n4)cc3n2)c(C)c1 [Example 7, 2-(2-(2,4-dimethylphenyl)imidazo[1,2-a]pyridin-7-yl)-5,8-dimethyl-[1,2,4]triazolo[1,5-a]pyrazine] | 1 to 100 | 11
2 | Cc1ncc(C)n2nc(-c3ccn4cc(-c5cccc(N6CC[C@H](F)C6)c5)nc4c3)nc12 [Example 28, (S)-2-(2-(3-(3-fluoropyrrolidin-1-yl)phenyl)imidazo[1,2-a]pyridin-7-yl)-5,8-dimethyl-[1,2,4]triazolo[1,5-a]pyrazine] | – | 0.16
3 | Cc1ncc(C)n2nc(-c3ccn4cc(-c5cnccn5)nc4c3)nc12 [Example 22, 5,8-dimethyl-2-(2-(pyrazin-2-yl)imidazo[1,2-a]pyridin-7-yl)-[1,2,4]triazolo[1,5-a]pyrazine] | 1 to 100 | –
4 | Cc1ncc(C)n2nc(-c3ccn4cc(-c5ccc(C#N)cc5)nc4c3)nc12 [Example 16, 4-(7-(5,8-dimethyl-[1,2,4]triazolo[1,5-a]pyrazin-2-yl)-imidazo[1,2-a]pyridin-2-yl)benzonitrile] | 1 to 100 | –
5 | Cc1ncc(C)n2nc(-c3ccn4cc(C5CC5)nc4c3)nc12 [Example 21, 2-(2-cyclopropylimidazo[1,2-a]pyridin-7-yl)-5,8-dimethyl-[1,2,4]triazolo[1,5-a]pyrazine] | 1 to 100 | 26
6 | Cc1ncc(C)n2nc(-c3ccn4cc(-c5cccc(C6CC6)c5)nc4c3)nc12 [Example 26, 2-(2-(3-cyclopropylphenyl)imidazo[1,2-a]pyridin-7-yl)-5,8-dimethyl-1,2,41-triazolo[1,5-a]pyrazine] | – | 0.33
7 | Cc1ncc(C)n2nc(-c3cc4nc(-c5ccccc5)cn4cc3N3CCCC3)nc12 [Example 17, 5,8-dimethyl-2-(2-phenyl-6-(pyrrolidin-1-yl)imidazo[1,2-a]pyridin-7-yl)-[1,2,4]triazolo[1,5-a]pyrazine] | 1 to 100 | 3.5
8 | Cc1ncc(C)n2nc(-c3ccn4cc(-c5ccc(Cl)cc5)nc4c3)nc12 [Example 6, 2-(2-(4-chlorophenyl)imidazo[1,2-a]pyridin-7-yl)-5,8-dimethyl-[1,2,4]triazolo[1,5-a]pyrazine] | 1 to 100 | –

Next, values leading:

Row | IC50 (read-out: PDE10 IC50 (Range)) [nM] | IC50 (read-out: PDE10 IC50) [nM] | SMILES
9 | 1 to 100 | – | Cc1nccn2nc(-c3ccn4cc(-c5ccccn5)nc4c3)nc12 [Example 20, 8-methyl-2-(2-(pyridin-2-yl)imidazo[1,2-a]pyridin-7-yl)-[1,2,4]triazolo[1,5-a]pyrazine, 2 HCl]
10 | 1 to 100 | – | Cc1nccn2nc(-c3ccn4cc(-c5cccc(Br)c5)nc4c3)nc12 [Example 23, 2-(2-(3-bromophenyl)imidazo[1,2-a]pyridin-7-yl)-8-methyl-[1,2,4]triazolo[1,5-a]pyrazine]
11 | 1 to 100 | – | Cc1nccn2nc(-c3ccn4cc(-c5cccc(C6CC6)c5)nc4c3)nc12 [Example 24, 2-(2-(3-cyclopropylphenyl)imidazo[1,2-a]pyridin-7-yl)-8-methyl-[1,2,4]triazolo[1,5-a]pyrazine]
12 | 1 to 100 | 2.4 | Cc1nccn2nc(-c3ccn4c(C)c(-c5ccccc5)nc4c3)nc12 [Example 29, 8-methyl-2-(3-methyl-2-phenylimidazo[1,2-a]pyridin-7-yl)-[1,2,4]triazolo[1,5-a]pyrazine]
13 | – | 0.1 | Cc1ncc(C)n2nc(-c3ccn4cc(-c5ccccc5)nc4c3)nc12 [Example 1, 5,8-dimethyl-2-(2-phenylimidazo[1,2-a]pyridin-7-yl)-[1,2,4]triazolo[1,5-a]pyrazine]
14 | – | 0.16 | Cc1ncc(C)n2nc(-c3ccn4cc(-c5ccccn5)nc4c3)nc12 [Example 14, 5,8-dimethyl-2-(2-(pyridin-2-yl)imidazo[1,2-a]pyridin-7-yl)-[1,2,4]triazolo[1,5-a]pyrazine]
15 | 1 to 100 | – | Cc1nccn2nc(-c3ccn4cc(-c5ccccc5)nc4c3)nc12 [Example 19, 8-methyl-2-(2-phenylimidazo[1,2-a]pyridin-7-yl)-1,2,41-triazolo[1,5-a]pyrazine, 2 HCl]
